ChEMBL document CHEMBL4840355, “Antitumor and toxicity study of mitochondria-targeted triptolide derivatives using triphenylphosphine (TPP+) as a carrier” (Bioorg Med Chem, 2021)
Active and inactive are the calls of the source. No cut-off for these calls is given here.

How the values were obtained:
HepG2 [1] = test: Induction of apoptosis in human HepG2 cells assessed as necrotic cells at 150 nM measured after 48 hrs by Annexin V-FITC/PI double staining based flow cytometry analysis (Rvb= 0.13%); format: functional
HepG2 [2] = test: Induction of mitochondrial membrane potential loss in human HepG2 cells assessed as proportion of cells with hyperpolarized mitochondria at 150 nM measured after 48 hrs by JC-1 staining based flow cytometry analysis (Rvb= 80.9%); format: functional
[3] = Toxicity in zebrafish AB assessed as mortality at <12 uM measured at 72 hrs postfertilization; parameters: species or system Danio rerio; conditions: in vivo
HepG2 [4] = test: Induction of apoptosis in human HepG2 cells assessed as necrotic cells at 50 nM measured after 48 hrs by Annexin V-FITC/PI double staining based flow cytometry analysis (Rvb= 0.13%); format: functional
HepG2 [5] = test: Induction of apoptosis in human HepG2 cells assessed as late apoptotic cells at 75 nM measured after 48 hrs by Annexin V-FITC/PI double staining based flow cytometry analysis (Rvb= 2.89%); format: functional
NCI-H1975 = test: Cytotoxicity against human NCI-H1975 cells assessed as inhibition of cell proliferation measured after 48 hrs by MTT assay; format: functional, cell-based; conditions: NCI-H1975, 48 h
HepG2 [6] = test: Induction of apoptosis in human HepG2 cells assessed as live cells at 150 nM measured after 48 hrs by Annexin V-FITC/PI double staining based flow cytometry analysis (Rvb= 94.8%); format: functional
[7] = Cytotoxicity against human A549/DDP cells assessed as inhibition of cell proliferation measured after 48 hrs by MTT assay; format: functional, cell-based
HepG2 [8] = test: Induction of mitochondrial membrane potential loss in human HepG2 cells assessed as proportion of cells with hyperpolarized mitochondria at 100 nM measured after 48 hrs by JC-1 staining based flow cytometry analysis (Rvb= 80.9%); format: functional
HepG2 [9] = test: Cytotoxicity against human HepG2 cells assessed as inhibition of cell proliferation measured after 48 hrs by MTT assay; format: functional, cell-based; conditions: HepG2, 48 h
HepG2 [10] = test: Induction of apoptosis in human HepG2 cells assessed as early apoptotic cells at 75 nM measured after 48 hrs by Annexin V-FITC/PI double staining based flow cytometry analysis (Rvb= 2.16%); format: functional
HepG2 [11] = test: Induction of mitochondrial membrane potential loss in human HepG2 cells assessed as proportion of cells with depolarized mitochondria at 150 nM measured after 48 hrs by JC-1 staining based flow cytometry analysis (Rvb= 9.1%); format: functional
HepG2 [12] = test: Induction of ROS generation in human HepG2 cells assessed as increase in ROS level at 50 to 150 nM measured after 48 hrs by DCFH-DA staining based flow cytometry analysis; format: functional, cell-based; conditions: dose 50-150 nM
HepG2 [13] = test: Induction of apoptosis in human HepG2 cells assessed as live cells at 100 nM measured after 48 hrs by Annexin V-FITC/PI double staining based flow cytometry analysis (Rvb= 94.8%); format: functional
HepG2 [14] = test: Antitumor activity against human HepG2 cells xenografted in zebra fish AB assessed as tumor growth inhibition at 0.5 to 1 uM measured after 48 hrs by fluorescence microscopic analysis; format: functional, cell-based; conditions: dose 0.5-1 µM
HepG2 [15] = test: Induction of apoptosis in human HepG2 cells assessed as early apoptotic cells at 100 nM measured after 48 hrs by Annexin V-FITC/PI double staining based flow cytometry analysis (Rvb= 2.16%); format: functional
HepG2 [16] = test: Induction of apoptosis in human HepG2 cells assessed as necrotic cells at 75 nM measured after 48 hrs by Annexin V-FITC/PI double staining based flow cytometry analysis (Rvb= 0.13%); format: functional
HepG2 [17] = test: Induction of mitochondrial membrane potential loss in human HepG2 cells assessed as proportion of cells with hyperpolarized mitochondria at 50 nM measured after 48 hrs by JC-1 staining based flow cytometry analysis (Rvb= 80.9%); format: functional
[18] = Toxicity in zebrafish AB assessed as malformation rate at <12 uM measured at 72 hrs postfertilization; parameters: species or system Danio rerio; conditions: in vivo
HepG2 [19] = test: Induction of apoptosis in human HepG2 cells assessed as live cells at 75 nM measured after 48 hrs by Annexin V-FITC/PI double staining based flow cytometry analysis (Rvb= 94.8%); format: functional
HepG2 [20] = test: Induction of mitochondrial membrane potential loss in human HepG2 cells assessed as proportion of cells with hyperpolarized mitochondria at 75 nM measured after 48 hrs by JC-1 staining based flow cytometry analysis (Rvb= 80.9%); format: functional
MCF7 = test: Cytotoxicity against human MCF7 cells assessed as inhibition of cell proliferation measured after 48 hrs by MTT assay; format: functional, cell-based; conditions: MCF7, 48 h
HepG2 [21] = test: Induction of apoptosis in human HepG2 cells assessed as late apoptotic cells at 150 nM measured after 48 hrs by Annexin V-FITC/PI double staining based flow cytometry analysis (Rvb= 2.89%); format: functional
[22] = Toxicity in zebrafish AB assessed as body length at 0.05 to 2 uM measured at 72 hrs postfertilization; parameters: species or system Danio rerio; conditions: in vivo, dose 0.05-2 µM
HepG2 [23] = test: Induction of cell cycle arrest in human HepG2 cells assessed as accumulation of cells in G0/G1 phase at 50 nM measured after 48 hrs by RNase A/PI staining based flow cytometry analysis (Rvb= 56.42+/- 0.27%); format: functional
HepG2 [24] = test: Induction of mitochondrial membrane potential loss in human HepG2 cells assessed as proportion of cells with depolarized mitochondria at 75 nM measured after 48 hrs by JC-1 staining based flow cytometry analysis (Rvb= 9.1%); format: functional
[25] = Hepatotoxicity in transgenic zebrafish Tg(1-fabp:EGFP) assessed as liver damage by measuring decrease in fluorescence intensity and area at 0.05 to 0.5 uM measured after 96 hrs; format: toxicity, tissue-based, Danio rerio; conditions: in vivo, dose 0.05-0.5 µM
[26] = Toxicity in zebrafish AB assessed as pericardial edema at 12 uM measured at 72 hrs postfertilization; parameters: species or system Danio rerio; conditions: in vivo
PC-3 = test: Cytotoxicity against human PC-3 cells assessed as inhibition of cell proliferation measured after 48 hrs by MTT assay; format: functional, cell-based; conditions: PC-3, 48 h
[27] = Toxicity in zebrafish AB assessed as mortality at 0.05 to 2 uM measured at 72 hrs postfertilization; parameters: species or system Danio rerio; conditions: in vivo, dose 0.05-2 µM
[28] = Toxicity in zebrafish AB assessed as increase in embryo malformation rate at 0.05 to 2 uM measured at 72 hrs postfertilization; parameters: species or system Danio rerio; conditions: in vivo, dose 0.05-2 µM
[29] = Drug uptake in mitochondria of human HepG2 cells at 10 uM incubated for 7 hrs by RP-HPLC method relative to TP; format: ADME; conditions: hepg2, 7 h
HeLa = test: Cytotoxicity against human HeLa cells assessed as inhibition of cell proliferation measured after 48 hrs by MTT assay; format: functional, cell-based
[30] = Toxicity in zebrafish AB assessed as hatching rate at <12 uM measured at 72 hrs postfertilization; parameters: species or system Danio rerio; conditions: in vivo
HepG2 [31] = test: Cytotoxicity against human HepG2 cells assessed as increase in release of LDH measured after 48 hrs by LDH assay; format: functional, cell-based; conditions: dose 100-200 nM
HepG2 [32] = test: Induction of apoptosis in human HepG2 cells assessed as early apoptotic cells at 50 nM measured after 48 hrs by Annexin V-FITC/PI double staining based flow cytometry analysis (Rvb= 2.16%); format: functional

Question: For `CC(C)[C@]12O[C@H]1[C@@H]1O[C@]13[C@]1(O[C@H]1C[C@H]1C4=C(CC[C@@]13C)C(=O)OC4)[C@@H]2OC(=O)CCCCC[P+](c1ccccc1)(c1ccccc1)c1ccccc1.[Br-]`, which Activity (HepG2 [1]) is on record?
Answer: 0.1%

Question: And the Activity (HepG2 [2])?
Answer: 51.1%

Question: What about the Activity [3] of the same molecule?
Answer: Non-Toxic

Question: And the Activity (HepG2 [4])?
Answer: 0.63%

Question: And the Activity (HepG2 [5])?
Answer: 7.47%

Question: What about the IC50 (NCI-H1975) of the same molecule?
Answer: 0.088 µM

Question: And the Activity (HepG2 [6])?
Answer: 49.6%

Question: What about the IC50 [7] of the same molecule?
Answer: > 10 µM

Question: And the Activity (HepG2 [8])?
Answer: 54.4%

Question: What about the IC50 (HepG2 [9]) of the same molecule?
Answer: 0.067 µM

Question: What about the Activity (HepG2 [10]) of the same molecule?
Answer: 15.5%

Question: And the Activity (HepG2 [11])?
Answer: 48.9%

Question: What about the Activity (HepG2 [12]) of the same molecule?
Answer: Active

Question: And the Activity (HepG2 [13])?
Answer: 59.9%

Question: What about the Activity (HepG2 [14]) of the same molecule?
Answer: Active

Question: What about the Activity (HepG2 [15]) of the same molecule?
Answer: 27.8%

Question: And the Activity (HepG2 [16])?
Answer: 0.17%

Question: What about the Activity (HepG2 [17]) of the same molecule?
Answer: 74.7%

Question: What about the Activity [18] of the same molecule?
Answer: Non-Toxic

Question: What about the Activity (HepG2 [19]) of the same molecule?
Answer: 76.8%

Question: And the Activity (HepG2 [20])?
Answer: 64.4%

Question: What about the IC50 (MCF7) of the same molecule?
Answer: 0.238 µM

Question: What about the Activity (HepG2 [21]) of the same molecule?
Answer: 16.6%

Question: And the Activity [22]?
Answer: Non-Toxic

Question: What about the Activity (HepG2 [23]) of the same molecule?
Answer: 72.22%

Question: What about the Activity (HepG2 [24]) of the same molecule?
Answer: 35.6%

Question: And the Activity [25]?
Answer: Non-Toxic

Question: What about the Activity [26] of the same molecule?
Answer: Toxic

Question: What about the IC50 (PC-3) of the same molecule?
Answer: 0.186 µM

Question: And the Activity [27]?
Answer: Non-Toxic

Question: And the Activity [28]?
Answer: Non-Toxic

Question: And the “fold change (FC)” value [29]?
Answer: 3

Question: What about the IC50 (HeLa) of the same molecule?
Answer: 0.325 µM

Question: What about the Activity [30] of the same molecule?
Answer: Non-Toxic

Question: What about the Activity (HepG2 [31]) of the same molecule?
Answer: Dose-Dependent Effect

Question: And the Activity (HepG2 [32])?
Answer: 3.89%
